Legend:
[1] = molecular target: T1, PD-L1 (Homo sapiens, UniProt Q9NZQ7); test: PD-L1/PD-L1 dimerization biochemical protein-protein interaction assay (ALPHA); assay type: binding; conditions: compound-induced PD-L1 dimerization, head prints '1 nM' (0.5 nM His-tagged PD-L1 and 0.5 nM FLAG-tagged PD-L1), read-out: AC50 PDL1 Dimer Alpha 1 nM
T1 construct: determine if they can specifically dimerize the extracellular domains of PD-L1
How it was run: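 After 2 h at 25 °C with compound, His- and FLAG-tagged PD-L1 ECDs (each 0.5 nM final; 25 mM Hepes pH 7.4, 150 mM NaCl) were detected by sequential anti-His acceptor and anti-FLAG donor bead incubations. Dose-response curves fitted to four-parameter equation for AC50.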

[2] = molecular target: PD-1/PD-L1 (Homo sapiens, UniProt Q9NZQ7); test: PD-1/PD-L1 biochemical protein-protein interaction assay (ALPHA); assay type: binding; conditions: 0.3 nM His tagged PD-L1, 2.5 nM biotinylated Fc-PD-1, 60 minutes at 25° C., read-out: IC50 PD-L1-PD-1 Alpha IC50-mono PD-L1-fcP-D1
PD-1/PD-L1, sequence (Q9NZQ7 19-238 limits assumed): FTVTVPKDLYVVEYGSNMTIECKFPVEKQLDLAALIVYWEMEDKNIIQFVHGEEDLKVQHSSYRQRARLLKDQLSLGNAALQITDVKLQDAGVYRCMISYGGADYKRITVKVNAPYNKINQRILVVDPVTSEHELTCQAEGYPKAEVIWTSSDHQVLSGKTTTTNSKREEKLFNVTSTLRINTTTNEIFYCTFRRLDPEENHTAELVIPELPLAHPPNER
How it was run: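 IC50 values derive from four-parameter fits of ALPHA signal decrease. Assay: 0.3 nM His-tagged PD-L1 with 2.5 nM biotinylated Fc-PD-1, Hepes pH 7.4 with 0.005% Tween 20 and 0.01% BSA, 60 min at 25° C, then anti-His acceptor and streptavidin donor beads.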

[3] = molecular target: T2, PD-1/PD-L1 interaction (Homo sapiens, UniProt Q9NZQ7); test: PD-1/PD-L1 NFAT reporter co-culture assay; assay type: cell-based; conditions: Jurkat PD-1 NFAT-luciferase cells co-cultured with aAPC-PD-L1 CHO cells, 6 hrs at 37° C.; read-out: EC50 NFAT Luciferase
T2 construct: expressed in transfected cells; host or cells: CHO cells (aAPC-PD-L1) co-cultured with Jurkat cells overexpressing PD-1 and an NFAT-luciferase reporter
T2 sequence (Q9NZQ7 19-290): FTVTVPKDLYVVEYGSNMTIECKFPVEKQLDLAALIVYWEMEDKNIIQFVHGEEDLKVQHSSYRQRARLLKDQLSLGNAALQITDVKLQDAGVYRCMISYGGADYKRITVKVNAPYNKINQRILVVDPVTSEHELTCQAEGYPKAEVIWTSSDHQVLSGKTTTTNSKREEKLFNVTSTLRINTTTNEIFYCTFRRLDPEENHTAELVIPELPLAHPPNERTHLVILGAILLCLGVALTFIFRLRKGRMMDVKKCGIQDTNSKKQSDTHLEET
How it was run: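 Compounds are scored by restoration of NFAT-luciferase signal in PD-1-expressing Jurkat cells cultured 6 h at 37 °C on CHO cells presenting anti-CD3 and PD-L1; EC50 values derive from four-parameter curve fitting.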

T1 sequence (Q9NZQ7 19-238 limits assumed): as the sequence (Q9NZQ7 19-238 limits assumed) above
T1 sequence (Q9NZQ7 19-238 limits assumed): as above

SMILES | AC50 [1] | IC50 [2] | EC50 [3]
C[C@@](CO)(NCc1cc(Br)c(OCc2cccc(-c3cccc(-c4ccc5c(c4)C[C@@H](N)C5)c3Cl)c2Cl)nc1OCc1cncc(S(C)(=O)=O)c1)C(=O)O [Example 550] | 47.7 nM | 0.134 nM | 163 nM
COc1nc(O[C@H]2CCc3c(-c4cccc(-c5cnc(CN[C@@H]6CCC[C@@H]6O)c(OC)n5)c4Cl)cccc32)c(Cl)cc1CN[C@@](C)(CO)C(=O)O [Example 648] | 60.9 nM | 0.064 nM | 57 nM
N#Cc1cncc(COc2nc(OCc3cccc(-c4cccc(-c5ccc(CNC[C@@H]6CCC(=O)N6)cc5)c4Cl)c3Cl)c(Br)cc2CNC[C@@H]2CCC(=O)N2)c1 [Example 540] | 126 nM | 0.593 nM | 103 nM
Cc1c(COc2cc(OCc3cc(S(C)(=O)=O)cc(S(C)(=O)=O)c3)c(CN[C@@](C)(CO)C(=O)O)cc2Cl)cccc1-c1cccc(-c2ccc(CCCN3CC[C@@H](O)C3)cc2)c1C [Example 467] | 111 nM | 0.161 nM | 197 nM
Cc1c(COc2cc(OCc3cncc(C#N)c3)c(CNC[C@@H](O)CC(=O)O)cc2Cl)cccc1-c1cccc(-n2cc(CN3CCCC3)nn2)c1C [Example 449] | 1490 nM | 0.653 nM | 2570 nM
Cc1c(COc2cc(OCc3cncc(C#N)c3)c(CN[C@@H]3CCC[C@@H]3O)cc2Cl)cccc1-c1cccc(-c2ccc3c(c2)CCC3N2CC[C@H](C(=O)O)C2)c1C (stereo partly drawn) [Example 369, (3S)-1-(5-(3′-((2-chloro-5-((5-cyanopyridin-3-yl)methoxy)-4-((((1R,2S)-2-hydroxycyclopentyl)amino)methyl)phenoxy)methyl)-2,2′-dimethyl-[1,1′-biphenyl]-3-yl)-2,3-dihydro-1H-inden-1-yl)pyrrolidine-3-carboxylic acid] | 57.6 nM | 0.164 nM | 107 nM
Cc1c(COc2cc(OCc3cncc(C#N)c3)c(CNC[C@@H](O)CC(=O)O)cc2Cl)cccc1-c1cccc(-c2cnc3c(Cl)cc(CNC[C@@H](O)CC(=O)O)cc3c2)c1C [Example 297, (S)-4-(((3-(3′-((4-((((S)-3-carboxy-2-hydroxypropyl)amino)methyl)-2-chloro-5-((5-cyanopyridin-3-yl)methoxy)phenoxy)methyl)-2,2′-dimethyl-[1,1′-biphenyl]-3-yl)-8-chloroquinolin-6-yl)methyl)amino)-3-hydroxybutanoic acid] | 187 nM | 0.187 nM | 266 nM
Cc1c(COc2cc(OCc3cncc(C#N)c3)c(CNC[C@@H](O)CC(=O)O)cc2Cl)cccc1-c1cccc(-c2cn(CC3CCNC3)nn2)c1C (stereo partly drawn) [Example 331] | 500 nM | 0.273 nM | 232 nM
CS(=O)(=O)c1cncc(COc2nc(O[C@H]3CCc4c(-c5cccc(-c6ccc(OCCN7CC[C@@H](O)C7)cc6)c5Cl)cccc43)c(Cl)cc2CNC[C@@H](O)CC(=O)O)c1 [Example 666] | 22.9 nM | 0.076 nM | 418 nM
COc1nc(-c2cccc(-c3cccc4c3CC[C@@H]4Oc3nc(OC)c(CN4C[C@H](C(=O)O)[C@@H](C(C)C)C4)cc3Cl)c2Cl)ccc1CNC[C@@H]1CCC(=O)N1 [Example 760] | 44.2 nM | 0.064 nM | 63 nM
Cc1c(COc2cc(OCc3cncc(C#N)c3)c(CNC[C@@H](O)CC(=O)O)cc2Cl)cccc1-c1cccc(-c2ccc(CN[C@H]3CCCNC3=O)cc2)c1C [Example 572] | 453 nM | 0.431 nM | 129 nM
Cc1c(COc2cc(OCc3cncc(C#N)c3)c(CNCCO)cc2Cl)cccc1-c1cccc(-c2ccc(CN(C)C)cc2)c1Br [Example 450] | 110 nM | 1.56 nM | 277 nM
COc1nc(-c2cccc(-c3cccc(COc4nc(OCc5cncc(C#N)c5)c(CN[C@@](C)(CO)C(=O)O)cc4Br)c3Cl)c2Cl)ccc1C1=NCCN1 [Example 559] | 18.7 nM | 0.064 nM | 53 nM
COc1nc(-c2cccc(-c3cccc(NC(=O)c4ccc(C5=NCCN5)cn4)c3C)c2Cl)ccc1C1=NCCN1 [Example 434] | 106 nM | 0.077 nM | 332 nM
Cc1c(COc2cc(OCc3cncc(C#N)c3)c(CNC[C@@H](O)CC(=O)O)cc2Cl)cccc1-c1cccc(-c2cc3c(cc2F)C(N(C)C)CC3)c1C (stereo partly drawn) [Example 372, (3S)-4-((5-chloro-2-((5-cyanopyridin-3-yl)methoxy)-4-((3′-(1-(dimethylamino)-6-fluoro-2,3-dihydro-1H-inden-5-yl)-2,2′-dimethyl-[1,1′-biphenyl]-3-yl)methoxy)benzyl)amino)-3-hydroxybutanoic acid] | 425 nM | 1.13 nM | 860 nM
CC(C)(NCc1cc(Br)c(OCc2cccc(-c3cccc(-c4ccc5c(c4)C[C@@H](N)C5)c3Cl)c2Cl)nc1OCc1cncc(C#N)c1)C(=O)O [Example 551] | 12.4 nM | 0.064 nM | 100 nM
COc1nc(-c2cccc(-c3cccc4c3CC[C@@H]4Oc3nc(OC)c(CN4CC5(C(=O)O)CCC4CC5)cc3Cl)c2Cl)ccc1CNC[C@@H]1CCC(=O)N1 [Example 766] | 19.4 nM | 0.064 nM | 21 nM
Cc1c(COc2cc(OCc3cncc(C#N)c3)c(CN[C@@](C)(CO)C(=O)O)cc2Cl)cccc1-c1cccc(-c2ccc(CNC[C@@H]3CCC(=O)N3)cc2)c1C [Example 575] | 40.6 nM | 0.073 nM | 34 nM
COc1cc(-c2cccc(-c3cccc4c3CC[C@@H]4Oc3nc(OC)c(CNC[C@@H]4CCC(=O)N4)cc3Cl)c2Cl)nc(Cl)c1CNC[C@@H]1CCC(=O)N1 [Example 799] | 150 nM | 0.341 nM | 167 nM
Cc1c(COc2cc(OCc3cncc(C#N)c3)c(CNC[C@@H](O)CC(=O)O)cc2Cl)cccc1-c1cccc(-c2nc3cc(CNC[C@@H](O)CC(=O)O)ccc3o2)c1C [Example 593] | 124 nM | 0.064 nM | 113 nM
COc1nc(-c2cccc(-c3cccc4c3CC[C@@H]4Oc3nc(OC)c(CN4C[C@@H](C)[C@H](C(=O)O)C4)cc3Cl)c2Cl)ccc1CNC[C@@H]1CCC(=O)N1 [Example 765] | 13.1 nM | 0.064 nM | 11 nM

Continued by falling IC50 [2], values first:

AC50 [1] | IC50 [2] | EC50 [3] | SMILES
104 nM | 0.345 nM | 95 nM | COc1nc(-c2cccc(-c3cccc4c3CC[C@@H]4Oc3nc(OC)c(CN4CC5(CCC(=O)N5)C4)cc3Br)c2Cl)ccc1CN1CC2(CCC(=O)N2)C1 [Example 735]
172 nM | 0.239 nM | 204 nM | COc1cc(-c2cccc(-c3cccc(COc4cc(OCc5cncc(C#N)c5)c(CN[C@@](C)(CO)C(=O)O)cc4Cl)c3C)c2C)ccc1CN [Example 506]
389 nM | 0.224 nM | ≥ 50000 nM | COc1nc(-c2cccc(-c3cccc(-c4ccn5cc(CN6CC7(CCC(=O)N7)C6)nc5c4)c3Cl)c2Cl)ccc1CN1CC2(CCC(=O)N2)C1 [Example 618]
107 nM | 0.095 nM | 172 nM | Cc1c(COc2cc(OCc3cncc(C#N)c3)c(CNC[C@@H](O)CC(=O)O)cc2Cl)cccc1-c1cccc(-c2nc3ccc(CNC[C@@H](O)CC(=O)O)cc3o2)c1C [Example 592]
134 nM | 0.088 nM | 117 nM | Cc1c(COc2cc(OCc3cncc(C#N)c3)c(CN[C@@](C)(CO)C(=O)O)cc2Cl)cccc1-c1cccc(-c2ccc3c(cnn3CCN3CC[C@@H](O)C3)n2)c1C [Example 475]
67.1 nM | 0.074 nM | 168 nM | Cc1c(COc2cc(OCc3cncc(C#N)c3)c(CN[C@@](C)(CO)C(=O)O)cc2Cl)cccc1-c1cccc(-c2ccc(CNCC3CCC(=O)N3)cc2)c1C (stereo partly drawn) [Example 323, (2S)-2-((5-chloro-2-((5-cyanopyridin-3-yl)methoxy)-4-((2,2′-dimethyl-4″-((((5-oxopyrrolidin-2-yl)methyl)amino)methyl)-[1,1′:3′,1″-terphenyl]-3-yl)methoxy)benzyl)amino)-3-hydroxy-2-methylpropanoic acid]
44.3 nM | 0.064 nM | 65 nM | COc1nc(-c2cccc(-c3cccc(COc4nc(OCc5cc(C#N)cc(C#N)c5)c(CNC[C@@H](O)CC(=O)O)cc4Cl)c3Cl)c2Cl)ccc1CNC[C@@H]1CCC(=O)N1 [Example 568]
40.9 nM | 0.064 nM | 69 nM | Cc1c(COc2cc(OCc3cncc(C#N)c3)c(CN[C@@](C)(CO)C(=O)O)cc2Cl)cccc1-c1cccc(-c2ccc(CN(C)C)cc2)c1Br [Example 483]
10.1 nM | 0.064 nM | 24 nM | COc1nc(-c2cccc(-c3cccc4c3CC[C@@H]4Oc3nc(OCc4cncc(C#N)c4)c(CN[C@@](C)(CO)C(=O)O)cc3Br)c2C)ccc1C1=NCCN1 [Example 748]
232 nM | 0.064 nM | 147 nM | Cc1c(COc2cc(OCc3cncc(C#N)c3)c(CN3C[C@@H](O)C[C@H]3C(=O)O)cc2Cl)cccc1-c1cccc(-c2ccc(OCCNCCO)cc2)c1C [Example 510]
